The assay addresses T1, rsE-selectin (Homo sapiens, UniProt P16581).
T1 sequence (P16581 22-556 limits assumed): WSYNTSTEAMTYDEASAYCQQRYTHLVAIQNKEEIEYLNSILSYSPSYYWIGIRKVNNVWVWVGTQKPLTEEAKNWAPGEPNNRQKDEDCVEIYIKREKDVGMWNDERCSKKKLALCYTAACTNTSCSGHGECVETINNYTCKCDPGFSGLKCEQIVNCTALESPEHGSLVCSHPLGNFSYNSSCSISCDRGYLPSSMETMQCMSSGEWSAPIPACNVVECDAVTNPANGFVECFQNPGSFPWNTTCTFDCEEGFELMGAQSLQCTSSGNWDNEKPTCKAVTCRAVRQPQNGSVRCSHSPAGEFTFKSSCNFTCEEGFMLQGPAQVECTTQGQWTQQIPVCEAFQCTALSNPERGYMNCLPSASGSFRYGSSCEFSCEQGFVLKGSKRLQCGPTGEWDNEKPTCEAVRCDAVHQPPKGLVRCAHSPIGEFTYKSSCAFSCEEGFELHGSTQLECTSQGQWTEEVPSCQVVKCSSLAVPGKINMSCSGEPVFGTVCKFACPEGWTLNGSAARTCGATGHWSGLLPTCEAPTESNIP
Briefly: Inhibition of adhesion of HL-60 cells to plate-coated rsE-selectin (Experiment 2). Conditions: 50% inhibition concentration of adhesion of rsE-selectin to HL-60, from inhibition curves; medium-only well = 100%. The assay is classed as cell-based. The method, then: The DPBS solution containing rsE-selectin (3 µg/ml) was added to a 96 well plate at 50 µl/well, while wells filled with DPBS without rsE-selectin (non-specific adhesion control) were prepared on the same plate, and the plate was kept at room temperature for 3 hours. Then wells were washed 3 times with a DPBS/BSA solution at 200 µl/well, and DPBS/BSA solution was added at 200 µl/well, and the plate was kept at room temperature for 1 hour. After removing DPBS/BSA solution, a medium containing NWB or NWB plus a compound of the invention was added at 40 µl/well.
Frozen HL-60 cells were thawed promptly at 37°C, and washed with NWB cooled to 4°C 3 times by centrifugation at 1500rpm × 5 min. The cells were adjusted with NWB to 1×10^7 cells/ml, added to the plate at 20 µl/well, and the plate was kept at room temperature for 15 min.
The plate was set on a plate washer to remove nonadhesive HL-60 cells. The plate washer was set at slow mode, cycle 3 (washing 3 times), soak 0 sec., 12 rows (along vertical direction), and volume of NWB for 1 washing 200 µl/well at room temperature.
A citrate solution containing 0.1% NP-40 at room temperature was added at 50 µl/well, and the plate was kept at room temperature for 5 minutes. The substrate solution (4 mg OPDA, 4µl 30% H2O2/4 ml citrate) was added at 50 µl/well, protected from light with aluminum foil, allowed to develop color for 5 to 20 minutes, and the reaction was terminated by adding 4N-H2SO4 at 50µl/well. The substrate solution was used within 30 minutes after preparation.
The OD490 of each well was determined, and the OD490 value of the well for nonspecific adhesion was subtracted from the value of each well. The value found in a well containing only the medium was used as a control (100%) and the amount of adhesion in wells containing Compounds (15), (31), (33)-(40) or (41) of the invention was calculated by percent in terms of the values of the control. By drawing inhibition curves, 50% inhibition concentration (IC50) was determined.
The materials for the experiment were obtained from the following sources. rsE-selectin: producible by the method described in J. C. Poulson, J. Am. Chem. Soc., 117: 66-79 (1995). The sample of rsE-selectin used in the experiments was kindly supplied by the author. HL-60 : ATCC Corp. DPBS (Dulbecco Phosphate Buffered Saline) : GIBCO Corp. BSA (Bovine Serum Albumin) : Sigma Corp. HBSS (Hanks Balanced Salt Solution) : GIBCO Corp. OPDA (Ortho-phenylenediamine) : Sigma Corp. RPMI 1640 medium : GIBCO Corp. Bovine Fetal Serum : GIBCO Corp. Plate : Immulon. 2. (flat bottomed) : Dynatech Laboratories. Plate washer; Microplate Washer : Molecular Devices Corp.
A compound of the present invention was adjusted to 100mM with DPBS, and pH was adjusted to 7.1-7.4.
HL-60 was cultured in RPMI 1640 medium supplemented with 10% Bovine Fetal Serum. Using a cell freezing solution consisting of 80% RPMI 1640 medium + 10% Bovine Fetal Serum + 10% DMSO, HL-60 was frozen at 1.5 × 10^7 cells per a tube according to a conventional method, and stocked at -80°C. This was used under sterile condition.
Composition of DPBS/BSA was DPBS + 1% BSA.
Composition of NWB was HBSS + 10mM-HEPES + 0.2%glucose + 1%BSA+ 1mM-CaCl2. These two solutions are prepared under sterile condition.
The citrate solution was prepared by dissolving 2.33 g of citric acid and 9.20 g of Na2HPO4·12H2O in 500 ml of desalted water.

A word on the IC50: it is the concentration needed to halve the response being measured.

Molecules are shown by their SMILES.

As to `COc1cc(CCCO[C@@H]2O[C@H](CO)[C@@H](O[C@@H]3O[C@H](CO)[C@H](O)[C@H](O[C@]4(C(=O)O)C[C@H](O)[C@@H](NC(C)=O)[C@H]([C@H](O)[C@H](O)CO)O4)[C@H]3O)[C@H](O[C@@H]3O[C@@H](C)[C@@H](O)[C@@H](O)[C@@H]3O)[C@H]2NC(=O)c2ccccc2)cc(OC)c1OC` [Compound 41, 3-(3,4,5-Trimethoxyphenyl)propyl (5-acetamido-3,5-dideoxy-α-D-glycero-D-galacto-2-nonulopyranosylonic acid)-(2→3)-O-(β-D-galactopyranosyl)-(1→4)-O-[α-L-fucopyranosyl-(1→3)-O]-(2-deoxy-2-benzamido-β-D-glucopyranoside)], the IC50 was found to be 110 µM. The result for `CC(=O)N[C@H]1[C@H]([C@H](O)[C@H](O)CO)O[C@@](O[C@H]2[C@@H](O)[C@@H](CO)O[C@@H](O[C@H]3[C@H](O[C@@H]4O[C@@H](C)[C@@H](O)[C@@H](O)[C@@H]4O)[C@@H](NC(=O)c4ccc5ccccc5c4)[C@H](OCCOCCOCCO)O[C@@H]3CO)[C@@H]2O)(C(=O)O)C[C@@H]1O` [Compound 34, 2-[2-(2-Hydroxyethoxy)ethoxy]ethyl (5-acetamido-3,5-dideoxy-α-D-glycero-D-galacto-2-nonulopyra nosylonic acid)-(2→3)-O-(β-D-galactopyranosyl)-(1→4)-O-[α-L-fucopyranosyl-(1→3)-O]-(2-deoxy-2-paphthamido-β-D-glucopyranoside)] reads 110 µM; that for `CC(=O)N[C@H]1[C@H]([C@H](O)[C@H](O)CO)O[C@@](O[C@H]2[C@@H](O)[C@@H](CO)O[C@@H](O[C@H]3[C@H](O[C@@H]4O[C@@H](C)[C@@H](O)[C@@H](O)[C@@H]4O)[C@@H](NC(=O)c4ccc5ccccc5c4)[C@H](OCCCc4ccccc4)O[C@@H]3CO)[C@@H]2O)(C(=O)O)C[C@@H]1O` [Compound 36, 3-Phenylpropyl (5-acetamido-3,5-dideoxy-α-D-glycero-D-galacto-2-nonulopyranosylonic acid)-(2→3)-O-(β-D-galactopyranosyl)-(1→4)-O-[α-L-fucopyranosyl-(1→3)-O]-(2-deoxy-2-naphthamido-β-D-glucopyranoside)], 110 µM; that for `CCCCCCCCCOc1c(OC)cc(CCCO[C@@H]2O[C@H](CO)[C@@H](O[C@@H]3O[C@H](CO)[C@H](O)[C@H](O[C@]4(C(=O)O)C[C@H](O)[C@@H](NC(C)=O)[C@H]([C@H](O)[C@H](O)CO)O4)[C@H]3O)[C@H](O[C@@H]3O[C@@H](C)[C@@H](O)[C@@H](O)[C@@H]3O)[C@H]2NC(=O)c2ccc3ccccc3c2)cc1OC` [Compound 40, 3-(3,5-Dimethoxy-4-nonyloxyphenyl)propyl (5-acetamido-3,5-dideoxy-α-D-glycero-D-galacto-2-nonulopyra nosylonic acid)-(2→3)-O-(β-D-galactopyranosyl)-(1→4)-O-[α-L-fucopyranosyl-(1→3)-O]-(2-deoxy-2-naphthamido-β-D-glucopyranoside)], 70 µM. The figure for `CC(=O)N[C@H]1[C@H]([C@H](O)[C@H](O)CO)O[C@@](O[C@H]2[C@@H](O)[C@@H](CO)O[C@@H](O[C@H]3[C@H](O[C@@H]4O[C@@H](C)[C@@H](O)[C@@H](O)[C@@H]4O)[C@@H](NC(=O)c4ccc5ccccc5c4)[C@H](OCCOCc4ccccc4)O[C@@H]3CO)[C@@H]2O)(C(=O)O)C[C@@H]1O` [Compound 33, 2-Benzyloxyethyl (5-acetamido-3,5-dideoxy-α-D-glycero-D-galacto-2-nonulopyranosylonic acid)-(2→3)-O-(β-D-galactopyranosyl)-(1→4)-O-[α-L-fucopyranosyl-(1→3)-O ]-(2-deoxy-2-naphthamido-β-D-glucopyranoside)] is 210 µM; for `COc1cc(CCCO[C@@H]2O[C@H](CO)[C@@H](O[C@@H]3O[C@H](CO)[C@H](O)[C@H](O[C@]4(C(=O)O)C[C@H](O)[C@@H](NC(C)=O)[C@H]([C@H](O)[C@H](O)CO)O4)[C@H]3O)[C@H](O[C@@H]3O[C@@H](C)[C@@H](O)[C@@H](O)[C@@H]3O)[C@H]2NC(=O)c2ccc3ccccc3c2)cc(OC)c1OC` [Compound 38, 3-(3,4,5-Trimethoxyphenyl)propyl (5-acetamido-3,5-dideoxy-α-D-glycero-D-galacto-2-nonulopyranosylonic acid)-(2→3)-O-(β-D-galactopyranosyl)-(1→4)-O-[α-L-fucopyranosyl-(1→3)-O]-(2-deoxy-2-naphthamido-β-D-glucopyra noside)] it is 150 µM. The result for `CC(=O)N[C@H]1[C@H]([C@H](O)[C@H](O)CO)O[C@@](O[C@H]2[C@@H](O)[C@@H](CO)O[C@@H](O[C@H]3[C@H](O[C@@H]4O[C@@H](C)[C@@H](O)[C@@H](O)[C@@H]4O)[C@@H](NC(=O)c4ccc5ccccc5c4)[C@H](OCCCCCCCCCCCCO)O[C@@H]3CO)[C@@H]2O)(C(=O)O)C[C@@H]1O` [Compound 37, 12-Hydroxydodecyl (5-acetamido-3,5-dideoxy-α-D-glycero-D-galacto-2-nonulopyranosylonic acid)-(2→3)-O-(β-D-galactopyranosyl)-(1→4)-O-[α-L-fucopyranosyl-(1→3)-O]-(2-deoxy-2-naphthamido-β-D-glucopyranoside)] reads 110 µM; that for `CCCCCCCCCOc1cc(CCCO[C@@H]2O[C@H](CO)[C@@H](O[C@@H]3O[C@H](CO)[C@H](O)[C@H](O[C@]4(C(=O)O)C[C@H](O)[C@@H](NC(C)=O)[C@H]([C@H](O)[C@H](O)CO)O4)[C@H]3O)[C@H](O[C@@H]3O[C@@H](C)[C@@H](O)[C@@H](O)[C@@H]3O)[C@H]2NC(=O)c2ccc3ccccc3c2)cc(OC)c1OC` [Compound 39, 3-(4,5-Dimethoxy-3-nonyloxyphenyl)propyl (5-acetamido-3,5-dideoxy-α-D-glycero-D-galacto-2-nonulopyra nosylonic acid)-(2→3)-O-(β-D-galactopyranosyl)-(1→4) -O-[α-L-fucopyranosyl-(1→3)-O]-(2-deoxy-2-naphthamido-β-D-g lucopyranoside)], 150 µM.

The values are drawn from EP0801071A1, “LEWIS X DERIVATIVE AND PROCESS FOR PRODUCING THE SAME” (SUMITOMO PHARMACEUTICALS COMPANY, LIMITED, priority 1994, dated 1996).
